Reference: patent US20140243374A1, “Novel Sulfonamides” (The Brigham and Women's Hospital, Inc., priority 2011, published 2014)
pIC50: −log10 of the molar value. “And” between values parts separate entries of the source, which are not always exact repeats. Equal entries are not always repeated.

Experiments:
[1] = target: T1, γ-secretase (cleavage of APP, Aβ42) (Homo sapiens, UniProt P49768); assay: Aβ (1-42) cellular assay (Aβ ELISA, HEK AP-GL-T1 6 cells); format: cell-based; settings: for pIC50: cellular Aβ42 ELISA, 24 h compound treatment; for inhibition at 1 µM: at 1 μM (concentration in brackets), read-out: Aβ42 % Inh
T1 construct: endogenous in cells; host or cells: HEK AP-GL-T16 luciferase reporter cells (tetracycline-induced APP substrate)
How it was run: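 HEK AP-GL-T1 6 cells, with APP processing induced by tetracycline at compound addition 24 h post-plating. After 24 h of treatment, Aβ42 in conditioned medium (protease inhibitors added, frozen) was quantified by fluorometric sandwich ELISA (ex 460/em 560 nm) against an Aβ peptide standard curve.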

[2] = target: T2, γ-secretase (cleavage of Notch) (Homo sapiens, UniProt P49768); assay: Notch cellular assay (luciferase reporter U2OS cells); format: cell-based; settings: for pIC50: U2OS luciferase reporter cells; for Notch Luc/Aβ42: ratio Notch luciferase IC50 to Aβ42 IC50
T2 construct: endogenous in cells; host or cells: U2OS luciferase reporter cells with Tet-on Notch
Description: This assay was used to determine if the compounds of interest inhibit the cleavage of Notch by γ-secretase in cells. A U2OS cell line in which the luciferase expression is adjusted by active Notch was used in this assay Notch expression is adjusted using Tet-on promoter. Luciferase reporter U2OS cells are plated at 1000 cells/well in 96 well plates in DMEM containing 100 μg/mL hygromycin, 15 μg/mL blasticidin and 1 μg/mL Tetracycline. Compounds were added 24 h after plating and the cells are lysed 6 days after adding compounds. Luciferase expression was performed using Steady-Glo Luciferase Assay System (Promega).

[3] = target: T3, γ-secretase (Notch cleavage activity) (Homo sapiens, UniProt P49768); assay: Cleaved Notch1 Sandwich ELISA (SUP-T1 cell line); format: cell-based; settings: for pIC50: SUP-T1 cells, 16 h; for Notch Elisa/Aβ42: ratio Notch Elisa IC50 to Aβ42 IC50
T3 construct: endogenous in cells; host or cells: SUP-T1 cells
How it was run: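 SUP-T1 cells endogenously express a truncated Notch fragment that serves as γ-secretase substrate. Cells at 1.0×10^6 cells/mL in RPMI-1640 with 10% FBS were treated 16 h with serially diluted compounds in DMSO. Cleaved Notch intracellular domain was quantified by sandwich ELISA on equal protein amounts.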

Row | Structure (SMILES) | pIC50 [1] | melting point | pIC50 [2] | Notch Luc/Aβ42 [2] | pIC50 [3] | Notch Elisa/Aβ42 [3] | inhibition at 1 µM [1]
1 | CC[C@@H](C1CCCC1)N(Cc1ccc(C(=O)O)cc1)S(=O)(=O)c1ccc(Cl)cc1 [Example 20, (S)-4-((4-Chloro-N-(1-cyclopentylpropyl)phenylsulfonamido)methyl)benzoic acid] | 7.30 | 67 to 69 °C | 4.40 and 4.00 | 1400 |  |  | 
2 | CC1CCCCC1N(Cc1ccc(C(=O)O)cc1)S(=O)(=O)c1ccc(C(F)(F)F)nc1 (centres unmarked) [Example 32, 4-((N-(2-Methylcyclohexyl)-6-(trifluoromethyl)pyridine-3-sulfonamido)methyl)benzoic acid] | 7.55 | 117 to 119 °C | 5.32 | 169 |  |  | 
3 | C[C@H](CO)NC(=O)c1ccc(CN(C2CCCCC2F)S(=O)(=O)c2ccc(Cl)cc2)c(F)c1F (stereo partly drawn) [Example 77, 4-((4-Chloro-N-(2-fluorocyclohexyl)phenylsulfonamido)methyl)-2,3-difluoro-N—((R)-1-hydroxypropan-2-yl)benzamide] | 8.37 and 8.47 | 126 to 128 °C |  |  | 5.99 | 268 | 
4 | O=C(O)c1ccc(CN(C2CCCCC2)S(=O)(=O)c2ccc(Cl)cc2)cc1 [Example 45, 4-((4-chloro-N-cyclohexylphenylsulfonamido)methyl)benzoic acid] | 6.67 and 7.32 and 6.74 | 135 to 137 °C |  |  | 4.44 | 243 | 
5 | O=C(O)c1ccc(CN(C2CCCCC2F)S(=O)(=O)c2ccc(Cl)cc2)c(F)c1F (centres unmarked) [Example 72, 4-((4-Chloro-N-(2-fluorocyclohexyl)phenylsulfonamido)methyl)-2,3-difluorobenzoic acid] | 7.31 | 108 to 109 °C |  |  | 5.45 | 73 | 
6 | COc1ccc(CN(C2CCOCC2)S(=O)(=O)c2ccc(Cl)cc2)cc1C(=O)O [Example 8, 5-((4-Chloro-N-(tetrahydro-2H-pyran-4-yl)phenylsulfonamido)methyl)-2-methoxy-benzoic acid] |  | 174 to 176 °C |  |  |  |  | 0%
7 | COc1ccc(CN(CC2CCOCC2)S(=O)(=O)c2ccc(Cl)cc2)cc1C(=O)O [Example 17, 5-((4-Chloro-N-((tetrahydro-2H-pyran-4-yl)methyl)phenylsulfonamido)methyl)-2-methoxybenzoic acid] |  | 158 to 159 °C |  |  |  |  | 14%
8 | CC[C@@H](C1CCCCC1)N(Cc1ccc(C(=O)O)cc1)S(=O)(=O)c1ccc(Cl)cc1 [Example 15, (S)-4-((4-Chloro-N-(1-cyclohexylpropyl)phenylsulfonamido)methyl)benzoic acid] | 7.55 | 147 to 149 °C | 4.70 | 715 |  |  | 
9 | O=C(O)c1ccc(CN(C2CCCCC2)S(=O)(=O)c2ccc(Cl)cc2)c(F)c1F [Example 71, 4-((4-Chloro-N-cyclohexylphenylsulfonamido)methyl)-2,3-difluorobenzoic acid] | 6.28 | 111 to 112 °C |  |  |  |  | 
10 | COC(=O)c1ccc(CN(CC2CCOCC2)S(=O)(=O)c2ccc(Cl)cc2)cc1 [Example 18, Methyl 4-((4-chloro-N-((tetrahydro-2H-pyran-4-yl)methyl)phenylsulfonamido)-methyl)benzoate] |  | 115 to 117 °C |  |  |  |  | 94%

The next lines start with the values.

Row | pIC50 [1] | melting point | pIC50 [2] | Notch Luc/Aβ42 [2] | pIC50 [3] | Notch Elisa/Aβ42 [3] | inhibition at 1 µM [1] | Structure (SMILES)
11 | 7.68 | 116 to 117 °C | 5.60 |  |  |  |  | CC1CCCCC1N(Cc1ccc(C(=O)NC(C)(C)CO)cc1)S(=O)(=O)c1ccc(Cl)cc1 (centres unmarked) [Example 37, 4-((4-Chloro-N-(2-methylcyclohexyl)phenylsulfonamido)methyl)-N-(1-hydroxy-2-methylpropan-2-yl)benzamide]
12 | 6.87 | 121 to 122 °C | 5.09 | 60 |  |  |  | CC1CCCCC1N(Cc1ccc(C(=O)NC(C)(C)C(=O)O)cc1)S(=O)(=O)c1ccc(Cl)cc1 (centres unmarked) [Example 34, 2-(4-((4-Chloro-N-(2-methylcyclohexyl)phenylsulfonamido)methyl)benzamido)-2-methylpropanoic acid]
13 | 9.08 | 105 to 107 °C | 6.00 | 1192 | 6.89 | 157 |  | CC1CCCCC1N(Cc1ccc(C(=O)NCCO)cc1)S(=O)(=O)c1ccc(Cl)cc1 (centres unmarked) [Example 6, 4-((4-Chloro-N-(2-methylcyclohexyl)phenylsulfonamido)methyl)-N-(2-hydroxyethyl)benzamide]
14 | 8.96 and 8.74 | 95 to 97 °C | 5.64 | 1586 | 6.80 | 110 |  | CC1CCCCC1N(Cc1ccc(C(=O)N[C@@H](C)CO)cc1)S(=O)(=O)c1ccc(Cl)cc1 (stereo partly drawn) [Example 5, 4-((4-Chloro-N-(2-methylcyclohexyl)phenylsulfonamido)methyl)-N—((S)-1-hydroxypropan-2-yl)benzamide]
15 | 8.15 and 7.90 and 8.42 | 180 to 182 °C | 5.30 and 5.36 and 5.37 | 585 | 6.46 | 45 |  | CC1CCCCC1N(Cc1ccc(C(=O)O)cc1)S(=O)(=O)c1ccc(Cl)cc1 (centres unmarked) [Example 3, 4-((4-Chloro-N-(2-methylcyclohexyl)phenylsulfonamido)methyl)benzoic acid]
16 |  | 218 to 219 °C |  |  |  |  | 15% | O=C(O)c1ccc(CN([C@H]2CCCC[C@@H]2O)S(=O)(=O)c2ccc(Cl)cc2)cc1 [Example 30, 4-((4-Chloro-N-((1S,2S)-2-hydroxycyclohexyl)phenylsulfonamido)methyl)benzoic acid]
